Measurements reported in PubChem BioAssay (NCI).
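Method: 48-hour compound exposure of cells in 96-well plates, five concentrations, linear interpolation of endpoints. The concentration for 50% growth inhibition is given as GI50. TGI: total growth inhibition.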

Legend:
Experiment in all cases: NCI tumour cell line growth inhibition, 48 h
[1] = system: HCT-15 colon
[2] = system: EKVX NSCLC
[3] = system: DU-145 prostate
[4] = system: OVCAR-3 ovarian
[5] = system: NCI-H522 lung
[6] = system: CAKI-1 renal
[7] = system: SK-OV-3 ovarian
[8] = system: COLO 205 colon
[9] = system: MDA-MB-231 breast
[10] = system: HCC-2998 colon
[11] = system: SR leukemia
[12] = system: OVCAR-8 ovarian
[13] = system: UACC-257 melanoma
[14] = system: SF-295 CNS
[15] = system: SNB-75 CNS
[16] = system: UO-31 renal
[17] = system: TK-10 renal
[18] = system: U251 CNS
[19] = system: K-562 leukemia
[20] = system: SK-MEL-2 melanoma
[21] = system: A549 NSCLC
[22] = system: OVCAR-4 ovarian
[23] = system: 786-0 renal
[24] = system: MCF7 breast
[25] = system: ACHN renal
[26] = system: BT-549 breast
[27] = system: SF-268 CNS
[28] = system: SK-MEL-28 melanoma
[29] = system: CCRF-CEM leukemia
[30] = system: RXF 393 renal
[31] = system: SN12C renal
[32] = system: NCI-H226 lung
[33] = system: M14 melanoma
[34] = system: OVCAR-5 ovarian
[35] = system: MALME-3M melanoma
[36] = system: NCI-H23 lung
[37] = system: PC-3 prostate
[38] = system: MOLT-4 leukemia
[39] = system: UACC-62 melanoma
[40] = system: HL-60(TB) leukemia
[41] = system: NCI-H460 lung
[42] = system: SK-MEL-5 melanoma
[43] = system: HS 578T breast
[44] = system: SF-539 CNS
[45] = system: NCI/ADR-RES ovarian
[46] = system: T-47D breast
[47] = system: HOP-92 NSCLC
[48] = system: LOX IMVI melanoma
[49] = system: MDA-MB-435
[50] = system: HCT-116 colon
[51] = system: IGROV1 ovarian
[52] = system: A498 renal
[53] = system: HOP-62 NSCLC
[54] = system: RPMI-8226 leukemia
[55] = system: SNB-19 CNS
[56] = system: KM12 colon
[57] = system: SW-620 colon

Cn1cc(-c2nc(-c3c[nH]c4ncccc34)cs2)c2ccccc21
GI50 [1]: 1.47 µM | TGI [1]: > 100 µM | GI50 [2]: 0.368 µM | TGI [2]: 61.1 µM | GI50 [3]: 62.8 µM | TGI [3]: > 100 µM | GI50 [4]: 4.46 µM | TGI [4]: 24.7 µM | GI50 [5]: 12.3 µM | TGI [5]: > 100 µM | GI50 [6]: 25.5 µM | TGI [6]: > 100 µM | GI50 [7]: 65.3 µM | TGI [7]: > 100 µM | GI50 [8]: 24.1 µM | TGI [8]: > 100 µM | GI50 [9]: 1.03 µM | TGI [9]: 63.8 µM | GI50 [10]: 1.16 µM | TGI [10]: > 100 µM | GI50 [11]: 3.72 µM | TGI [11]: > 100 µM | GI50 [12]: 38.2 µM | TGI [12]: > 100 µM | GI50 [13]: 66.3 µM | TGI [13]: > 100 µM | GI50 [14]: 26.9 µM | TGI [14]: > 100 µM | GI50 [15]: 18.5 µM | TGI [15]: > 100 µM | GI50 [16]: > 100 µM | TGI [16]: > 100 µM | GI50 [17]: 5.78 µM | TGI [17]: 78.3 µM | GI50 [18]: 24.8 µM | TGI [18]: > 100 µM | GI50 [19]: 4.48 µM | TGI [19]: > 100 µM | GI50 [20]: 54.7 µM | TGI [20]: > 100 µM | GI50 [21]: 26.6 µM | TGI [21]: > 100 µM | GI50 [22]: 0.117 µM | TGI [22]: > 100 µM | GI50 [23]: 91.7 µM | TGI [23]: > 100 µM | GI50 [24]: 0.401 µM | TGI [24]: 26.1 µM | GI50 [25]: 31.7 µM | TGI [25]: > 100 µM | GI50 [26]: 23.7 µM | TGI [26]: > 100 µM | GI50 [27]: 89.4 µM | TGI [27]: > 100 µM | GI50 [28]: 48.8 µM | TGI [28]: > 100 µM | GI50 [29]: 24.1 µM | TGI [29]: > 100 µM | GI50 [30]: 17.9 µM | TGI [30]: > 100 µM | GI50 [31]: > 100 µM | TGI [31]: > 100 µM | GI50 [32]: 14.2 µM | TGI [32]: > 100 µM | GI50 [33]: 19.3 µM | TGI [33]: > 100 µM | GI50 [34]: 0.762 µM | TGI [34]: 73.9 µM | GI50 [35]: 31.9 µM | TGI [35]: > 100 µM | GI50 [36]: 4.49 µM | TGI [36]: > 100 µM | GI50 [37]: 16.4 µM | TGI [37]: > 100 µM | GI50 [38]: 23 µM | TGI [38]: > 100 µM | GI50 [39]: 30.5 µM | TGI [39]: > 100 µM | GI50 [40]: 10.7 µM | TGI [40]: > 100 µM | GI50 [41]: 1.27 µM | TGI [41]: > 100 µM | GI50 [42]: 0.595 µM | TGI [42]: > 100 µM | GI50 [43]: > 100 µM | TGI [43]: > 100 µM | GI50 [44]: 48.7 µM | TGI [44]: > 100 µM | GI50 [45]: 19.9 µM | TGI [45]: > 100 µM | GI50 [46]: 0.414 µM | TGI [46]: 26.9 µM | GI50 [47]: 2.72 µM | TGI [47]: 36.2 µM | GI50 [48]: 24.5 µM | TGI [48]: > 100 µM | GI50 [49]: 3.84 µM | TGI [49]: 30 µM | GI50 [50]: 24.2 µM | TGI [50]: > 100 µM | GI50 [51]: 6.66 µM | TGI [51]: > 100 µM | GI50 [52]: 34.5 µM | TGI [52]: > 100 µM | GI50 [53]: 19.7 µM | TGI [53]: 68.4 µM | GI50 [54]: 4.6 µM | TGI [54]: > 100 µM | GI50 [55]: 71.4 µM | TGI [55]: > 100 µM | GI50 [56]: 0.975 µM | TGI [56]: 26.7 µM | GI50 [57]: 35.9 µM | TGI [57]: > 100 µM
